For experiment [1], the system named is galanin-induced tonic contraction of the uterus. The conditions noted are these: Reference 7; cited from earlier work.
The test system of experiment [2] is bradykinin-induced contraction of rat uterine strips. Description: Bradykinin-induced contraction of isolated rat uterine strips. Type of experiment: cell-based. The conditions noted are these: 10 nM bradykinin; for effect on the inhibitory effect of AM on bradykinin-induced contraction: preliminary addition of 1 μM antagonist. Here is the method: In a manner similar to that of Example 1, uterine strips were prepared and attached to an isotonic transducer in a modified KRB solution. At the time when 10 nM bradykinin (Peptide Institute, Inc.) was added to the modified KRB solution, myometrial contraction was continuously measured. 20 minutes after the addition of bradykinin, 100 nM AM or distilled water was further added.
(§1) In another experiment, rats without injection of 17β-estradiol were used. The effect of 100 nM AM on uterine contraction induced by 10 nM bradykinin, 1 nM oxytocin, or 1 μM PGF2α was tested in the presence or absence of 1 μM AM[22-52] or 1 μM CGRP[8-37].
(§2) In all measurements, the uterine strips were eventually contracted due to 45 mM KCl depolarization to confirm responses of the myometrium. The results are shown in FIGS. 6(a) to 6(f) and FIGS. 7(a) to 7(e).

The test system of experiment [3] is spontaneous myometrial contraction of rat uterine strips. Description: Spontaneous contraction of isolated uterine strips from 17β-estradiol-treated female rats (isotonic transducer). Type of experiment: cell-based. The note with it: for effect on the contraction inhibitory effect of 1 to 100 nM AM (spontaneous contraction): 1 μM preliminary addition; for effect of the antagonist per se on spontaneous contraction: 1 μM, preliminary addition (15 min preincubation). The protocol: 1 μg of 17β-estradiol in 0.2 ml of 30% ethanol was subcutaneously injected to 10 to 12 week old female rats.
On the following day, the rats were sacrificed by hammering their heads. Thereafter, the rats were decapitated, followed by exsanguination. The uteri were isolated from the rats. Each isolated uterus was cut into four fragments a to d (FIG. 1(A)). Portions of each strip to which blood vessels were attached were cut off, thereby obtaining uterine strips (FIG. 1(B)).
The effect of AM on the rat uterus was examined by measuring contractions of the uterine strips using an isotonic transducer TD-112S (manufactured by Nippon Kohden Corporation) where the tension was 1 g.
While the uterine strip was immersed in 30 ml of a modified Krebs-Ringer bicarbonate (KRB) solution with glucose) (hereinafter simply referred to as “modified KRB solution”), the uterine strip was attached to the isotonic transducer. The composition of the modified KRB solution is as follows: 122 mM NaCl, 26 mM NaHCO3, 5 mM KCl, 1 mM MgSO4.7H2O, 0.03 mM EDTA-2Na, 2.4 mM CaCl2, and 11 mM glucose; pH 7.4).
(§3) Myometrial contraction was continuously measured. After spontaneous rhythm of the uterine muscle was confirmed to be constant, 30 μl of 10^−4 M AM (experimental sample) or distilled water (control sample) was added to the respective modified KRB solution with glucose, where the concentration of AM was 100 nM. 30 minutes after the addition of AM or distilled water, 300 μl of 4.5 M KCl was added to make a KCl concentration of 45 mM.
In a manner similar to that of Example 1, uterine strips were prepared, and attached to an isotonic transducer in a modified KRB solution. Myometrial contraction was continuously measured. After it was confirmed that the spontaneous rhythm of uterine muscle became constant, 30 μl of 1×10^−6, 2×10^−6, 7×10^−6, 2×10^−5, or 7×10^−5 M AM (experimental samples), or distilled water (control sample) was added to the modified KRB solution at time 0 min (initial addition), 5 min later, 12 min later, 22 min later, and 32 min later, where AM concentrations were 1, 3, 10, 30, and 100 nM, respectively. Thereafter, after 45 minutes from the initial addition of AM or distilled water, 300 μl of 4.5 M KCl was added to the solution to be a KCl concentration of 45 mM.
8 to 12 weeks old female rats were used to prepare uterine strips in a manner similar to that of Example 1.
Thereafter, the uterine strip was placed in a tissue chamber filled with 30 ml of a modified KRB solution with aeration of 95% O2/5% CO2 at 37° C. to measure contraction of the uterine strip in a manner similar to that of Example 1. After 40 minutes of equilibrium, the uterine strip was preincubated for 15 minutes in the presence or absence of 1 μM AM[22-52] or 1 μM CGRP[8-37]. Thereafter, AM was added to the modified KRB solution in the tissue chamber to gradually increase the AM concentration from 1 nM to 100 nM, exposing the uterine strip to AM.

The next experiment relates to uterine strips. Description: Stimulation of contraction of uterine strips from rats not treated with estrogen. Type of experiment: cell-based, rat. The note with it: 1 nM oxytocin, 1 μM PGF2α or 10 nM bradykinin. Here is the method: as §1
The subject of experiment [4] is oxytocin-induced contraction of rat uterine strips. Description: Oxytocin-induced contraction of isolated rat uterine strips. The conditions noted are these: 100 nM AM, 1 nM oxytocin, rats not treated with estrogen. Type of experiment: cell-based. The protocol:
(§4) In another experiment, rats without injection of 17β-estradiol were used. The effect of 100 nM AM on uterine contraction induced by 10 nM bradykinin, 1 nM oxytocin, or 1 μM PGF2α was tested in the presence or absence of 1 μM AM[22-52] or 1 μM CGRP[8-37]. In all measurements, the uterine strips were eventually contracted due to 45 mM KCl depolarization to confirm responses of the myometrium. The results are shown in FIGS. 6(a) to 6(f) and FIGS. 7(a) to 7(e).

Experiment [5] relates to PGF2α-induced contraction of rat uterine strips. Description: PGF2α-induced contraction of isolated rat uterine strips. Type of experiment: cell-based. The note with it: 100 nM AM, 1 μM PGF2α, rats not treated with estrogen. The protocol: as §4
Experiment [6] relates to muscle contraction due to activation of voltage-dependent Ca channels (45 mM KCl). Description: 45 mM KCl depolarization-induced contraction of rat uterine strips. Type of experiment: cell-based. The note with it: 100 nM AM, KCl added 30 min after AM. The protocol: as §3, §2

Bridge positions count the residues as written; N and C are the ends. Ends that are not written are not given here. A value given as a limit tells only on which side of the number the result lay.

As usually defined, the IC50 is the concentration at which inhibition is half-maximal.

As to “CGRP[8-37]: an antagonist for a CGRP receptor (VTHRLAGLLSRSGGVVKNNFVPTNVGSKAF; ends and bridges not checked; UniProt P06881 90-119, looked up, fragment) [reference compound]”, the “effect on the action of AM on galanin-induced tonic contraction” value in experiment [1] was “eliminated”. Further, in experiment [2] (100 nM AM), the “effect on the inhibitory effect of AM on bradykinin-induced contraction” value is listed as “eliminated”. Besides, in experiment [3], the “effect on the contraction inhibitory effect of 1 to 100 nM AM (spontaneous contraction)” value was “substantially completely prevents” and the “effect of the antagonist per se on spontaneous contraction” value is reported as “had no effect”.

As to “AM[22-52]: an antagonist for an AM receptor (TVQKLAHQIYQFTDKDKDNVAPRSKISPQGY; ends and bridges not checked; UniProt P35318 116-146, looked up, fragment) [reference compound]”, the “effect on the inhibitory effect of AM on bradykinin-induced contraction” value in experiment [2] (100 nM AM) is listed as “eliminated”. Moreover, in experiment [3], the “effect on the contraction inhibitory effect of 1 to 100 nM AM (spontaneous contraction)” value was “substantially completely prevents” and the “effect of the antagonist per se on spontaneous contraction” value was “had no effect”.

For `CC[C@H](C)[C@@H]1NC(=O)[C@H](Cc2ccc(O)cc2)NC(=O)[C@@H](N)CSSC[C@@H](C(=O)N2CCC[C@H]2C(=O)N[C@@H](CC(C)C)C(=O)NCC(N)=O)NC(=O)[C@H](CC(N)=O)NC(=O)[C@H](CCC(N)=O)NC1=O` [oxytocin], in the experiment with uterine strips, the “stimulation of uterine contraction” value is recorded as “significantly stimulated contraction”.

As for “YRQSMNQGSRSTGCRFGTCTMQKLAHQIYQFTDKDKDGMAPRNKISPQGY-NH2 (disulfide 14-19; C-terminus assumed) [AM]”, the “effect on contraction induced by oxytocin” value in experiment [4] was “almost no effect”. Also, the “concentration at which galanin-induced tonic contraction of the uterus was inhibited” value in experiment [1] is at least 5 µM. Moreover, the “effect on bradykinin-induced contraction” value in experiment [2] (100 nM AM added 20 min later, estradiol-treated rats, Example 3) is “inhibited”; in experiment [2] (100 nM AM, rats not treated with estrogen, Example 4), “completely blocked”. The “effect on contraction induced by PGF2α” value in experiment [5] is given as “almost no effect”. In addition, the “effect on spontaneous myometrial contraction” value in experiment [3] (100 nM AM, Example 1, FIGS. 2(c), 2(d)) is “significantly inhibited”. For the same molecule, the “effect on spontaneous myometrial contraction, cumulative concentrations” value in experiment [3] (1, 3, 10, 30, 100 nM AM, Example 2, FIGS. 3(a), 3(b)) is given as “inhibited by the addition of AM in a concentration-dependent manner”. Also, the half-maximal inhibitory concentration (IC50) in experiment [3] (AM 1 to 100 nM, estradiol-treated rats, Example 4, read-out: IC50 of inhibition of spontaneous contraction) stood at 23 nM. In addition, the “reversibility of the inhibitory effect on spontaneous contraction” value in experiment [3] (washing out and exchanging the modified KRB solution after 100 nM AM) is given as “could be reversed”. For the same molecule, in experiment [6], the “effect on contraction caused by 45 mM KCl” value is on record as “does not affect”.

In the case of prostaglandin F2α [PGF2α], in the experiment on uterine strips, the “stimulation of uterine contraction” value was “significantly stimulated contraction”.

Source of the values: patent US7326680B1, “Uterine contraction inhibitors” (Shionogi & Co., Ltd., priority 1999, dated 2008).
